Laboratory results from US10188605B2, “Nanoparticles and nanoparticle compositions” (priority 2010, dated 2019).
Where “and” joins values, the source holds several entries; their conditions need not be identical. Identical values can stand only once.

How the values were obtained:
[1] = versus camptothecin; cited from earlier work
[2] = Critical micelle concentration of surfactant 1 (surface tension; pyrene I3/I1 fluorescence); assay type: physicochemical
Description: Pyrene was used as a surrogate for a hydrophobic drug because of its environmentally sensitive fluorescence. […] The intensity ratio between the third (˜384 nm) and the first band (˜372 nm), in particular, is sensitive to changes in the environment. […] The CMC of the surfactant is about 1.4×10^−4 M according to surface tension measurement and 1.5×10^−4 M, according to FIG. 15.

[3] = Release of entrapped pyrene from SCMs by fluorescence (I3/I1 ratio); assay type: physicochemical; conditions: uncrosslinked reference
Description: The intensity ratio between the third (˜384 nm) and the first band (˜372 nm), in particular, is sensitive to changes in the environment.

[4] = in water at 20° C.; cited from earlier work

Compound: CC[C@@](O)(C(=O)[O-])c1cc2n(c(=O)c1CO)Cc1cc3ccccc3nc1-2.[Na+] [CAM-Na]
- biological activity relative to the parent drug [1]: one-tenth

Compound: C#CC[N+](CC#C)(CC#C)Cc1ccc(OCCCCCCCCCCCC)cc1.[Br-] [Compound 1, 4-(Dodecyloxy)benzyltripropargylammonium bromide]
- critical micelle concentration ([2]; in water): 150 µM and 140 µM
- CMC according to pyrene I3/I1 ratio (FIG. 15) ([2]; pyrene fluorescence): 150 µM
- CMC according to surface tension measurement ([2]; surface tension): about 1.4×10^−4 M
- pyrene I3/I1 in uncrosslinked surfactant below the CMC [3]: 0.70

Compound: CCCCCCCCCCCC[N+](C)(C)C.[Br-] [Dodecyltrimethyl ammonium bromide]
- micellar aggregation number [4]: 55
